What was measured:
[1] = molecular target: T1, Angiotensin-converting enzyme (Rattus norvegicus) (UniProt P47820); assay: Inhibition of rat lung ACE at 113 ug/ml relative to control
T1 sequence (whole entry): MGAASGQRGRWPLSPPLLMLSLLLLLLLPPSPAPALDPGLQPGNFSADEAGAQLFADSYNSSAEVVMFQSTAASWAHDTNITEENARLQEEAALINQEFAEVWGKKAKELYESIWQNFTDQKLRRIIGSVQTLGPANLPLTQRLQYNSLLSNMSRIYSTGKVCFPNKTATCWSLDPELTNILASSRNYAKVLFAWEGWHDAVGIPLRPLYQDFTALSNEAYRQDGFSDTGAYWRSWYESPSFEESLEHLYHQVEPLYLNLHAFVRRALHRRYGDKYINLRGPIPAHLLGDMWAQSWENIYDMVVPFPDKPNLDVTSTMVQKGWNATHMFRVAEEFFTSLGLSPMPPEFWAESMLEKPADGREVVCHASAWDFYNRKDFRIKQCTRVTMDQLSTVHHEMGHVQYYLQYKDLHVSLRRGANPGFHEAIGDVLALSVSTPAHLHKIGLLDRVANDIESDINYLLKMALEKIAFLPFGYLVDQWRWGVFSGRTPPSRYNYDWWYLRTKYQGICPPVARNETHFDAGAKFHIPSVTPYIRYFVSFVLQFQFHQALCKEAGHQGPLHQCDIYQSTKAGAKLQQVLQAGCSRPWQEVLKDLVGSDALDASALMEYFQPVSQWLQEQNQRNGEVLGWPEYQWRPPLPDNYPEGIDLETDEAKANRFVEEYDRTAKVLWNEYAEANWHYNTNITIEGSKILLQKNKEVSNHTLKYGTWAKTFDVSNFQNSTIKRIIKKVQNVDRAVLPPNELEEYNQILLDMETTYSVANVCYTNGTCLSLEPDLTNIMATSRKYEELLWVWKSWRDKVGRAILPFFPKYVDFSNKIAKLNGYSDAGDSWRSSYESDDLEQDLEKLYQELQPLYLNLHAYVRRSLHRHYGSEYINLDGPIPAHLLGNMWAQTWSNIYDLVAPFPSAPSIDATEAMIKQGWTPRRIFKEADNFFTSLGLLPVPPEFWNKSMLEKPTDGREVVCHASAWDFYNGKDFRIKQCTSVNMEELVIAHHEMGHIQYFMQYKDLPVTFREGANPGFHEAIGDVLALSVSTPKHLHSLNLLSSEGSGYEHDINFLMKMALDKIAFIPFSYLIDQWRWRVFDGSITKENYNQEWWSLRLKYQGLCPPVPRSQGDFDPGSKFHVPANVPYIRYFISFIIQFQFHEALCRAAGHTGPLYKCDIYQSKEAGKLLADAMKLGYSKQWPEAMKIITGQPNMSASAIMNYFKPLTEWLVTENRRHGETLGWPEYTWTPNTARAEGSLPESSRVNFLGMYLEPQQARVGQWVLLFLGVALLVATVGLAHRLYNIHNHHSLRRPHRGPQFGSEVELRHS

[2] = molecular target: T1, Angiotensin-converting enzyme (Rattus norvegicus); assay: Inhibition of rat lung ACE at 225 ug/ml relative to control
[3] = molecular target: T1, Angiotensin-converting enzyme (Rattus norvegicus); assay: Inhibition of rat lung ACE at 38 ug/ml relative to control
[4] = molecular target: T1, Angiotensin-converting enzyme (Rattus norvegicus); assay: Inhibition of rat lung ACE at 75 ug/ml relative to control
[5] = molecular target: T1, Angiotensin-converting enzyme (Rattus norvegicus); assay: Inhibition of rat lung ACE at 150 ug/ml relative to control
[6] = molecular target: T1, Angiotensin-converting enzyme (Rattus norvegicus); assay: Inhibition of rat lung ACE at 300 ug/ml relative to control
[7] = molecular target: T2, Angiotensin-converting enzyme (Rattus norvegicus, UniProt P47820); assay: Inhibition of rat lung ACE
T2 sequence (P47820 whole entry): T1 sequence (whole entry)

[8] = molecular target: T1, Angiotensin-converting enzyme (Rattus norvegicus); assay: Inhibition of rat lung ACE at 56 ug/ml relative to control

| inhibition [1] | inhibition [2] | inhibition [3] | inhibition [4] | inhibition [5] | inhibition [6] | IC50 [7] | inhibition [8] | SMILES |
| --- | --- | --- | --- | --- | --- | --- | --- | --- |
| 31% | 28% | 0% | 22% | 53% | 67% | 401 µM | 2% | O=c1c(O[C@@H]2O[C@H](CO)[C@@H](O)[C@H](O)[C@H]2O)c(-c2ccc(O)cc2)oc2cc(O)cc(O)c12 [ASTRAGALIN] |
| 35% | 39% | 3% | 15% | 35% | 53% | 466 µM | 6% | O=C(O[C@H]1[C@H](Oc2c(-c3ccc(O)cc3)oc3cc(O)cc(O)c3c2=O)O[C@H](CO)[C@@H](O)[C@@H]1O)c1cc(O)c(O)c(O)c1 |
| 39% | 34% | 10% | 18% | 39% | 48% | – | 12% | O=C(O[C@H]1[C@H](Oc2c(-c3ccc(O)c(O)c3)oc3cc(O)cc(O)c3c2=O)O[C@H](CO)[C@@H](O)[C@@H]1O)c1cc(O)c(O)c(O)c1 |
| 3% | 19% | 0% | 9% | 19% | – | – | 0% | O=c1c(O[C@@H]2O[C@H](CO)[C@@H](O)[C@H](O)[C@H]2O)c(-c2ccc(O)c(O)c2)oc2cc(O)cc(O)c12 |
